Experimental data as given in publication PMC5384220 (Nature Communications, 2017).
“Also recorded” adds a separate entry of the source. Where a SMILES comes first, the peptide text is derived from it. Bridges are numbered along the chain shown (N, C = ends). Where no end group is shown, it is not given here. [ ]: non-standard residue; d: D form. Lys(Me3) = C[N+](C)(C)CCCC[C@H](N)C(=O)O; Phe(4-F) = N[C@@H](Cc1ccc(F)cc1)C(=O)O; NMeV = CN[C@H](C(=O)O)C(C)C; NMeC = CN[C@@H](CS)C(=O)O

Key:
KDM4A [1] = target: T1, KDM4A (Homo sapiens, UniProt O75164); experiment: AlphaScreen demethylase activity assay, KDM4A; format: biochemical; conditions: for IC50: KDM4A 1-359
T1 construct: KDM4A 1-359 E.coli; Hexa-His (N); made in house; host or cells: E. coli
T1 sequence (O75164 1-359): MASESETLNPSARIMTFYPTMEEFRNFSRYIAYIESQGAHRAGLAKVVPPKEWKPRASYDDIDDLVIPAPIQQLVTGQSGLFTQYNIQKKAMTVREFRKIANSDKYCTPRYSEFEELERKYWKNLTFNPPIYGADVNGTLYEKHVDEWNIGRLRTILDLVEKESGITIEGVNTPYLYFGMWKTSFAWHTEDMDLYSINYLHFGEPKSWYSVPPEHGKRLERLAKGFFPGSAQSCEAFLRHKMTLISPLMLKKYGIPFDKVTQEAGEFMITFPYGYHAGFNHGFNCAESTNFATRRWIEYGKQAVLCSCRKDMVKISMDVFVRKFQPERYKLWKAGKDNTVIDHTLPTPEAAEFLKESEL
Description: IC50 values for KDM2–6 were measured using an AlphaScreen assay as described. The appropriate KDM (5 μl) was pre-incubated with an inhibitor (0.1 μl in DMSO) or DMSO for 15 min before the addition of 5 μl mixture of biotinylated peptide substrates, 2OG, ferrous ammonium sulfate (1–10 μM final) and ascorbate (100 μM final) to initiate the demethylation reaction. The reaction was quenched with 5 μl of 30 mM EDTA at predetermined reaction times for each enzyme (initial rate). Demethylated product was detected by addition of 5 μl of AlphaScreen donor and acceptor beads (AlphaScreen General IgG Detection Kit, 0.02 mg ml^−1 final each) pre-incubated with antibody. The plates were read after 1 h incubation in a BMG Labtech Pherastar FS plate reader. Data were normalized to a no enzyme control and IC50 values were calculated using nonlinear regression curve fits using GraphPad Prism. Assay buffer (50 mM HEPES pH 7.5, BSA (0.1% w/v) and Tween-20 (0.01% v/v)) was used throughout, except for dilution of stock ferrous ammonium sulfate solutions where water was used. The enzyme, substrate and antibody concentrations used are described in Supplementary Table 3. A fluorescence-based LSD1 inhibitor screening assay kit (Cayman, 700120) was used for KDM1/LSD1 assay. Assays for prolyl hydroxylase domain 2 and factor inhibiting HIF using matrix-assisted laser desorption/ionization–time of flight MS were performed as previously described. Prism 5.0 (GraphPad) was used to generate and to fit dose–response curves. IC50 values were determined by plotting percentage inhibition versus compound concentration relative to positive (vehicle) and negative (no enzyme) controls, using normalized dose–response (variable slope) fit. The reported values are the mean of multiple experiments (n≥3). The formaldehyde dehydrogenase coupled KDM assay was used to determine the mode of inhibition, using 0.5 μM His-KDM4A1–359. Prism 5.0 (GraphPad) was used to fit in mix-mode inhibition, to determine the kinetic parameters. Binding constants for CPs and H3(1–15)K9me3 were measured using biolayer interferometry (OctetRed 384, ForteBio) in buffer (50 mM HEPES (pH 7.5), 150 mM NaCl, 10 μM ammonium iron(II) sulphate). His-KDM4A1–359-Bio (70 nM) was immobilized onto super streptavidin biosensor and subjected to different peptide concentrations in buffer. Data analysis was performed using ForteBio Data Aalysis (v6.4).
Construct Expression [E] / nM [2OG] / µM [Fe(II)] / µM Peptide / nM Peptide sequence Antibody Source […]
Supplementary Table 3. AlphaScreen assay parameters for 2OG oxygenases used for this study. The table was dapted from 10. Assays were performed at 2OG concentration near the 2OG Km values determined experimentally.11 All enzymes were expressed and purified as described.10-12

His-KDM4A1-359-Bio = target: T2, His-KDM4A1-359-Bio (Homo sapiens, UniProt O75164); experiment: Biolayer interferometry binding to KDM4A
T2 construct: KDM4A protein (residues 1-359) was cloned into the pNIC-Bio3 plasmid, which incorporates a C-terminal AviTag; made in house; host or cells: E. coli BL21(DE3)Rosetta co-transfected with pCDF-BirA
T2 sequence (O75164 1-359): T1 sequence (O75164 1-359)

KDM4C = target: T3, KDM4C (Homo sapiens, UniProt Q9H3R0); experiment: AlphaScreen demethylase activity assay, KDM4C; format: biochemical
T3 construct: KDM4C 1-366 E.coli; made in house; host or cells: E. coli
T3 sequence (Q9H3R0 1-366): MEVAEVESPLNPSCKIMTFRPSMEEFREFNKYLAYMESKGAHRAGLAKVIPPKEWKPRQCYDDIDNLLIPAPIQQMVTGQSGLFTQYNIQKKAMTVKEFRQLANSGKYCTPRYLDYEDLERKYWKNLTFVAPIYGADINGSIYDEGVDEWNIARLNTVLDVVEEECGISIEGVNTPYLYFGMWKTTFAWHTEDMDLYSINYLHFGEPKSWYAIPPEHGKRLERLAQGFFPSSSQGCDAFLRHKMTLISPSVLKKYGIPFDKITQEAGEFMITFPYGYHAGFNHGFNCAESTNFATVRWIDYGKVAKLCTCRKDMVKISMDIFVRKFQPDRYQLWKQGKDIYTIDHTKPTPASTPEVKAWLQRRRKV
Description: IC50 values for KDM2–6 were measured using an AlphaScreen assay as described. The appropriate KDM (5 μl) was pre-incubated with an inhibitor (0.1 μl in DMSO) or DMSO for 15 min before the addition of 5 μl mixture of biotinylated peptide substrates, 2OG, ferrous ammonium sulfate (1–10 μM final) and ascorbate (100 μM final) to initiate the demethylation reaction. The reaction was quenched with 5 μl of 30 mM EDTA at predetermined reaction times for each enzyme (initial rate). Demethylated product was detected by addition of 5 μl of AlphaScreen donor and acceptor beads (AlphaScreen General IgG Detection Kit, 0.02 mg ml^−1 final each) pre-incubated with antibody. The plates were read after 1 h incubation in a BMG Labtech Pherastar FS plate reader. Data were normalized to a no enzyme control and IC50 values were calculated using nonlinear regression curve fits using GraphPad Prism. […] A fluorescence-based LSD1 inhibitor screening assay kit (Cayman, 700120) was used for KDM1/LSD1 assay. […] IC50 values were determined by plotting percentage inhibition versus compound concentration relative to positive (vehicle) and negative (no enzyme) controls, using normalized dose–response (variable slope) fit. […] Binding constants for CPs and H3(1–15)K9me3 were measured using biolayer interferometry (OctetRed 384, ForteBio) in buffer (50 mM HEPES (pH 7.5), 150 mM NaCl, 10 μM ammonium iron(II) sulphate). […]

FLAG-KDM4A in HeLa cells = experiment: Immunofluorescence of H3K9me3 in HeLa cells overexpressing FLAG-KDM4A, 24 h dosing
[2] = test system: H3K9me3/H3K36me3 in HeLa cells; experiment: Immunofluorescence of global histone methylation, 72 h dosing; format: cell-based; conditions: 72 h treatment
Excerpt: Supplementary Figure 12. Immunofluorescence analysis of global histone methylation levels after 72hr dosing of cyclic peptides in HeLa cells. (a)-(c) Immunofluorescence analysis of HeLa cells dosed with cyclic peptides for 72 hrs. Maximum intensity projected images of 3D confocal z-stacks showing nuclei stained with […]
DMSO and CP2 treated cells. Bar represents 50µm. Global H3K9me3 (d) and associated nuclei count for the […]
staining, (h) global H3K4me3 and (i) global H3K27me3 staining. An increase in fluorescence intensity, […]
over certain concentration ranges. Average +/- s.e.m (n > 100 cells) are shown except at concentrations of […]
A generic 2OG oxygenase inhibitor 5-carboxy-8-
Immunofluorescence (IF) assay […]
with 0.5% FBS and 1% Pen-Strep. […]
grade plate (Becton Dickinson) and left overnight to adhere. Cells were dosed with cyclic […]
After 30min blocking (3% FBS in […]
three times after each incubation. […]
Image acquisition and analysis […]
image immunostained cells in a 96-well plate configuration. For each well, the system […]
The average intensity for each […]
analysed using GraphPad Prism 5. […]

KDM4A1-359 = target: T4, KDM4A1-359 (Homo sapiens, UniProt O75164); experiment: MALDI-TOF MS demethylation of CP2 variants as substrates; format: biochemical; conditions: KDM4A 2 μM, peptide 10 μM, 2OG 100 μM, 2 h 37 °C
T4 construct: Hexa-His (N); made in house
T4 sequence (O75164 1-359): T1 sequence (O75164 1-359)
Description: Figure 3 KDM4A can demethylate methylated lysine and arginine containing non-histone sequences. […] The reaction product was analysed using matrix-assisted laser desorption/ionization–time of flight MS. Reactions containing enzymes are in red, no enzyme peptide controls are in black.

KDM4A [3] = test system: KDM4A; parameters: method as in earlier work; conditions: ref 4 (King et al., supplementary references); read-out: EC50 KDM4A inhibition in cells; cited from earlier work

## LYLKSRRSGLTWIPC [CP4]
KDM4A [1]; ratio of IC50 values
  Intra-subfamily selectivity KDM4A-C over KDM4D-E: > 100 fold
  Selectivity by IC50 for KDM4 over other JmjC-demethylase families, PHD2, FIH and KDM1A: > 160 fold
His-KDM4A1-359-Bio
  KDM4A Binding kdiss: 0.000784 s⁻¹
  KDM4A Binding kon: 21800 M⁻¹ s⁻¹

## CC(C)[C@H]1C(=O)N[C@@H](Cc2ccc(O)cc2)C(=O)N[C@@H](CC(N)=O)C(=O)N[C@@H]([C@@H](C)O)C(=O)N[C@@H](C)C(=O)N[C@@H](CO)C(=O)N[C@H](C)C(=O)N[C@@H](Cc2c[nH]c3ccccc23)C(=O)N[C@@H](CCCNC(=N)N)C(=O)N[C@@H](Cc2c[nH]c3ccccc23)C(=O)N[C@@H](Cc2ccc(F)cc2)C(=O)N2CCC[C@H]2C(=O)N(C)[C@H](C(N)=O)CSCC(=O)N[C@H](Cc2ccc(O)cc2)C(=O)N1C [CP2.3(R6A)] ({CH2CO}-[dY][NMeV]YNTAS[dA]WRW[Phe(4-F)]P[NMeC]-NH2; thioether N-14)
KDM4C
  IC50: > 10 µM

## DYVYNTRSGWRWYTC-BRRRRRRRRR [CP2(polyR)]
FLAG-KDM4A in HeLa cells
  H3K9me3 levels in cells overexpressing FLAG-KDM4A (cellular KDM4A demethylase activity): Loss of H3K9me3 staining; also recorded: no inhibition of cellular KDM4A demethylase activity

## DYVYNTRSGWRWYTC [Linear CP2]
KDM4A [1]; AlphaScreen
  KDM4A IC50 relative to CP2: four fold higher

## DY(meV)YNTRSDAWRWY(meT)(meC) [CP2.2]
[2]
  Inhibitor range with increases in nuclear H3K9me3/H3K36me3 staining: 10 to 20 µM

## CC[C@H](C)[C@@H]1NC(=O)CNC(=O)[C@H](CC(C)C)NC(=O)[C@H](Cc2c[nH]c3ccccc23)NC(=O)[C@H](Cc2ccc(O)cc2)NC(=O)[C@@H](Cc2ccc(O)cc2)NC(=O)CSC[C@@H](C(N)=O)NC(=O)[C@H](Cc2ccc(O)cc2)NC(=O)[C@H](CO)NC(=O)[C@H](CCCNC(=N)N)NC(=O)[C@@H]2CCCN2C(=O)[C@H]([C@@H](C)O)NC1=O [CP1] ({CH2CO}-[dY]YWLGITPRSYC-NH2; thioether N-12)
KDM4A [1]; AlphaScreen
  IC50: > 100 µM

## DY(meV)YNTRSDAWRW(4FF)P(meC) [CP2.3]
[2]
  Inhibitor range with increases in nuclear H3K9me3/H3K36me3 staining: 10 to 20 µM

## DYVYNT[Lys(Me3)]SGWRWYTC [R6Kme3]
KDM4A1-359
  Demethylation of the peptide by KDM4A (substrate): efficiently demethylated
KDM4A1-359; listed as CP2(R6Kme3)
  Demethylation of the peptide by KDM4A (substrate): substrates of KDM4A

## LYSKYTQSGVRWVC [CP5]
KDM4A [1]; ratio of IC50 values
  Selectivity by IC50 for KDM4 over other JmjC-demethylase families, PHD2, FIH and KDM1A: > 160 fold
His-KDM4A1-359-Bio
  KDM4A Binding kdiss: 0.0107 s⁻¹
  KDM4A Binding kon: 62000 M⁻¹ s⁻¹

## CC[C@H](C)[C@@H]1NC(=O)[C@H](C)NC(=O)[C@@H]2CCCN2C(=O)[C@H]([C@@H](C)O)NC(=O)[C@H](Cc2ccc(O)cc2)NC(=O)[C@H](Cc2ccccc2)NC(=O)[C@H](Cc2c[nH]c3ccccc23)NC(=O)[C@H](Cc2ccc(O)cc2)NC(=O)CSC[C@@H](C(N)=O)NC(=O)[C@H](Cc2c[nH]c3ccccc23)NC(=O)[C@H](CCCNC(=N)N)NC1=O [CP3] ({CH2CO}-YWFYTPAIRWC-NH2; thioether N-11)
KDM4A [1]; AlphaScreen
  IC50: > 100 µM
KDM4C
  IC50: > 100 µM

## DYVYNTRSDAWRWYT(meC) [CP2.1]
[2]
  Inhibitor range with increases in nuclear H3K9me3/H3K36me3 staining: 10 to 20 µM

## LYVYNT(Rme2a)SGWRWYTC (not fully specified (N-terminus, bridges)) [CP2(R6me2a)]
KDM4A1-359
  Demethylation of the peptide by KDM4A (substrate): demethylate; also recorded: substrates of KDM4A
